Measurements taken from ChEMBL document CHEMBL3046590, “Design and synthesis of some thiazolotriazolyl esters as anti-inflammatory and analgesic agents” (Med Chem Res, 2012).

What was measured:
Mus musculus [1] = test: Analgesic activity in Mus musculus BALB/c (mouse) assessed as inhibition of acetic acid-induced writhing at 100 mg/kg, po administered 1 hr followed by acetic acid challenge measured for 10 min; type: functional
Mus musculus [2] = test: Antioxidant activity in Mus musculus BALB/c (mouse) stomach assessed as TBARS level at 100 mg/kg, po (reference value: 80.4 +/- 5.4 nmol/g ); type: functional
Mus musculus [3] = test: Toxicity in Mus musculus BALB/c (mouse) assessed as mortality at 50 to 200 mg/kg, po after 72 hr; type: organism-based; design: dose 50-200 mg/kg, route oral; settings: in vivo
Mus musculus [4] = test: Toxicity in Mus musculus BALB/c (mouse) assessed as behavioral changes at 50 to 200 mg/kg, po after 72 hr; type: organism-based; design: dose 50-200 mg/kg, route oral; settings: in vivo
Mus musculus [5] = test: Anti-inflammatory activity in Mus musculus BALB/c (mouse) assessed as carrageenan-induced paw swelling at 50 mg/kg, po administered 1 hr followed by carrageenan challenge measured at 270 min (reference value: 78 +/- 8.4 x 10^-2 mm); type: functional
Mus musculus [6] = test: Anti-inflammatory activity in Mus musculus BALB/c (mouse) assessed as carrageenan-induced paw swelling at 200 mg/kg, po administered 1 hr followed by carrageenan challenge measured at 270 min (reference value: 78 +/- 8.4 x 10^-2 mm); type: functional
Mus musculus [7] = test: Anti-inflammatory activity in Mus musculus BALB/c (mouse) assessed as carrageenan-induced paw swelling at 200 mg/kg, po administered 1 hr followed by carrageenan challenge measured at 180 min (reference value: 52 +/- 4.6 x 10^-2 mm); type: functional
Mus musculus [8] = test: Anti-inflammatory activity in Mus musculus BALB/c (mouse) assessed as carrageenan-induced paw swelling at 100 mg/kg, po administered 1 hr followed by carrageenan challenge measured at 360 min (reference value: 105 +/- 4.5 x 10^-2 mm); type: functional
Mus musculus [9] = test: Anti-inflammatory activity in Mus musculus BALB/c (mouse) assessed as carrageenan-induced paw swelling at 200 mg/kg, po administered 1 hr followed by carrageenan challenge measured at 90 min (reference value: 39 +/- 5.6 x 10^-2 mm); type: functional
Mus musculus [10] = test: Anti-inflammatory activity in Mus musculus BALB/c (mouse) assessed as inhibition of carrageenan-induced paw swelling at 100 mg/kg, po administered 1 hr followed by carrageenan challenge measured at 180 min relative to control; type: functional
Mus musculus [11] = test: Anti-inflammatory activity in Mus musculus BALB/c (mouse) assessed as carrageenan-induced paw swelling at 50 mg/kg, po administered 1 hr followed by carrageenan challenge measured at 180 min (reference value: 52 +/- 4.6 x 10^-2 mm); type: functional
Mus musculus [12] = test: Anti-inflammatory activity in Mus musculus BALB/c (mouse) assessed as inhibition of carrageenan-induced paw swelling at 100 mg/kg, po administered 1 hr followed by carrageenan challenge measured at 360 min relative to control; type: functional
Mus musculus [13] = test: Anti-inflammatory activity in Mus musculus BALB/c (mouse) assessed as carrageenan-induced paw swelling at 50 mg/kg, po administered 1 hr followed by carrageenan challenge measured at 90 min (reference value: 39 +/- 5.6 x 10^-2 mm); type: functional
Mus musculus [14] = test: Anti-inflammatory activity in Mus musculus BALB/c (mouse) assessed as carrageenan-induced paw swelling at 200 mg/kg, po administered 1 hr followed by carrageenan challenge measured at 360 min (reference value: 105 +/- 4.5 x 10^-2 mm); type: functional
Mus musculus [15] = test: Anti-inflammatory activity in Mus musculus BALB/c (mouse) assessed as carrageenan-induced paw swelling at 100 mg/kg, po administered 1 hr followed by carrageenan challenge measured at 180 min (reference value: 52 +/- 4.6 x 10^-2 mm); type: functional
Mus musculus [16] = test: Anti-inflammatory activity in Mus musculus BALB/c (mouse) assessed as carrageenan-induced paw swelling at 100 mg/kg, po administered 1 hr followed by carrageenan challenge measured at 270 min (reference value: 78 +/- 8.4 x 10^-2 mm); type: functional
Mus musculus [17] = test: Anti-inflammatory activity in Mus musculus BALB/c (mouse) assessed as carrageenan-induced paw swelling at 50 mg/kg, po administered 1 hr followed by carrageenan challenge measured at 360 min (reference value: 105 +/- 4.5 x 10^-2 mm); type: functional
Mus musculus [18] = test: Anti-inflammatory activity in Mus musculus BALB/c (mouse) assessed as carrageenan-induced paw swelling at 100 mg/kg, po administered 1 hr followed by carrageenan challenge measured at 90 min (reference value: 39 +/- 5.6 x 10^-2 mm); type: functional
Mus musculus [19] = test: Anti-inflammatory activity in Mus musculus BALB/c (mouse) assessed as inhibition of carrageenan-induced paw swelling at 50 mg/kg, po administered 1 hr followed by carrageenan challenge measured at 270 min relative to control; type: functional
Mus musculus [20] = test: Anti-inflammatory activity in Mus musculus BALB/c (mouse) assessed as inhibition of carrageenan-induced paw swelling at 50 mg/kg, po administered 1 hr followed by carrageenan challenge measured at 360 min relative to control; type: functional
Mus musculus [21] = test: Anti-inflammatory activity in Mus musculus BALB/c (mouse) assessed as inhibition of carrageenan-induced paw swelling at 100 mg/kg, po administered 1 hr followed by carrageenan challenge measured at 270 min relative to control; type: functional
Mus musculus [22] = test: Anti-inflammatory activity in Mus musculus BALB/c (mouse) assessed as inhibition of carrageenan-induced paw swelling at 200 mg/kg, po administered 1 hr followed by carrageenan challenge measured at 270 min relative to control; type: functional
Mus musculus [23] = test: Anti-inflammatory activity in Mus musculus BALB/c (mouse) assessed as inhibition of carrageenan-induced paw swelling at 200 mg/kg, po administered 1 hr followed by carrageenan challenge measured at 360 min relative to control; type: functional
Mus musculus [24] = test: Anti-inflammatory activity in Mus musculus BALB/c (mouse) assessed as inhibition of carrageenan-induced paw swelling at 200 mg/kg, po administered 1 hr followed by carrageenan challenge measured at 180 min relative to control; type: functional

Compound | inhibition in vivo at 100 mg/kg (Mus musculus [1]) | Activity (Mus musculus [2]) | Activity (Mus musculus [3]) | Activity (Mus musculus [4]) | Activity (Mus musculus [5]) | Activity (Mus musculus [6]) | Activity (Mus musculus [7]) | Activity (Mus musculus [8]) | Activity (Mus musculus [9]) | inhibition in vivo at 100 mg/kg (Mus musculus [10]) | Activity (Mus musculus [11]) | inhibition in vivo at 100 mg/kg (Mus musculus [12]) | Activity (Mus musculus [13]) | Activity (Mus musculus [14]) | Activity (Mus musculus [15]) | Activity (Mus musculus [16]) | Activity (Mus musculus [17]) | Activity (Mus musculus [18]) | inhibition in vivo at 50 mg/kg (Mus musculus [20]) | inhibition in vivo at 100 mg/kg (Mus musculus [21]) | further results
CC(=O)Oc1ccccc1C(=O)O [ASPIRIN] | 50% | 121 nmol/g | Non-toxic | Non-toxic |  |  |  |  |  |  |  |  |  |  |  |  |  |  |  |  | 
CCOC(=O)c1sc2nc(-c3ccc(Cl)cc3)nn2c1C | 89.7% | 116.9 nmol/g | Non-toxic | Non-toxic | 91.1 ×10⁻² mm | 69.6 ×10⁻² mm | 45.7 ×10⁻² mm | 75.4 ×10⁻² mm | 35.7 ×10⁻² mm | 17.7% | 70 ×10⁻² mm | 28.2% | 66.1 ×10⁻² mm | 98.3 ×10⁻² mm | 42.8 ×10⁻² mm | 69.9 ×10⁻² mm | 117.8 ×10⁻² mm | 45.5 ×10⁻² mm |  |  | 
CCOC(=O)Cc1csc2nc(Cc3cc(OC)c(OC)c(OC)c3)nn12 | 62.8% | 157.1 nmol/g | Non-toxic | Non-toxic | 61.3 ×10⁻² mm | 70.3 ×10⁻² mm | 42.5 ×10⁻² mm | 129.5 ×10⁻² mm | 38 ×10⁻² mm | 37.9% | 46 ×10⁻² mm |  | 55.1 ×10⁻² mm | 93.4 ×10⁻² mm | 32.3 ×10⁻² mm | 105 ×10⁻² mm | 87.2 ×10⁻² mm | 40.8 ×10⁻² mm | 16.9% |  | inhibition in vivo at 50 mg/kg (Mus musculus [19]): 21.4%
CCOC(=O)Cc1csc2nc(-c3ccc(OC)cc3)nn12 | 24.3% | 128.7 nmol/g | Non-toxic | Non-toxic | 76.2 ×10⁻² mm | 79 ×10⁻² mm | 52.2 ×10⁻² mm | 122.5 ×10⁻² mm | 43.7 ×10⁻² mm | 24.4% | 65.4 ×10⁻² mm |  | 71.2 ×10⁻² mm | 110.8 ×10⁻² mm | 38.3 ×10⁻² mm | 90 ×10⁻² mm | 96.1 ×10⁻² mm | 47.9 ×10⁻² mm |  |  | 
COc1cc(CC2=NC(=S)N=N2)cc(OC)c1OC |  | 115.1 nmol/g | Non-toxic | Non-toxic | 57.8 ×10⁻² mm | 77 ×10⁻² mm | 49.8 ×10⁻² mm | 65 ×10⁻² mm | 45.6 ×10⁻² mm | 18.3% | 46 ×10⁻² mm | 38.1% | 35.6 ×10⁻² mm | 104.5 ×10⁻² mm | 42.5 ×10⁻² mm | 60 ×10⁻² mm | 77.3 ×10⁻² mm | 36.2 ×10⁻² mm | 26.4% | 23.1% | inhibition in vivo at 50 mg/kg (Mus musculus [19]): 25.9%
COc1ccc(CCC2=NC(=S)N=N2)cc1 | 24.3% | 116.2 nmol/g | Non-toxic | Non-toxic | 73.6 ×10⁻² mm | 66.3 ×10⁻² mm | 46.4 ×10⁻² mm | 80.5 ×10⁻² mm | 42.1 ×10⁻² mm | 51.3% | 46.8 ×10⁻² mm | 23.3% | 50 ×10⁻² mm | 87.6 ×10⁻² mm | 25.3 ×10⁻² mm | 54 ×10⁻² mm | 78.2 ×10⁻² mm | 36.3 ×10⁻² mm | 25.5% | 30.8% | inhibition in vivo at 200 mg/kg (Mus musculus [22]): 15%; inhibition in vivo at 200 mg/kg (Mus musculus [23]): 16.6%
Sc1n[nH]c(-c2ccccc2)n1 | 35.9% | 88.4 nmol/g | Non-toxic | Non-toxic | 61.3 ×10⁻² mm | 74.3 ×10⁻² mm | 51.7 ×10⁻² mm | 126 ×10⁻² mm | 45.8 ×10⁻² mm | 27.1% | 34.9 ×10⁻² mm |  | 39.8 ×10⁻² mm | 105.4 ×10⁻² mm | 36.9 ×10⁻² mm | 111 ×10⁻² mm | 89.1 ×10⁻² mm | 44.3 ×10⁻² mm | 15.1% |  | inhibition in vivo at 50 mg/kg (Mus musculus [19]): 21.4%
CCOC(=O)Cc1csc2nc(-c3ccccc3)nn12 |  | 174.1 nmol/g | Non-toxic | Non-toxic | 79.7 ×10⁻² mm | 75 ×10⁻² mm | 48.1 ×10⁻² mm | 87.5 ×10⁻² mm | 35.2 ×10⁻² mm | 23.1% | 53.5 ×10⁻² mm | 16.7% | 76.3 ×10⁻² mm | 105.4 ×10⁻² mm | 40 ×10⁻² mm | 53.7 ×10⁻² mm | 102 ×10⁻² mm | 45 ×10⁻² mm |  | 31.1% | 
CCOC(=O)Cc1csc2nc(-c3cc(Cl)cc(Cl)c3)nn12 | 35.9% | 200.1 nmol/g | Non-toxic | Non-toxic | 78 ×10⁻² mm | 61.3 ×10⁻² mm | 43 ×10⁻² mm | 60 ×10⁻² mm | 41.6 ×10⁻² mm |  | 49 ×10⁻² mm | 42.8% | 70.4 ×10⁻² mm | 83.1 ×10⁻² mm | 66.2 ×10⁻² mm | 65 ×10⁻² mm | 96 ×10⁻² mm | 40 ×10⁻² mm |  | 16.7% | inhibition in vivo at 200 mg/kg (Mus musculus [22]): 21.4%; inhibition in vivo at 200 mg/kg (Mus musculus [24]): 17.3%; inhibition in vivo at 200 mg/kg (Mus musculus [23]): 20.8%
